From patent US9790203B2, “Inhibitor compounds of phosphodiesterase type 10A” (ABBVIE DEUTSCHLAND GMBH & CO. KG, priority 2012, dated 2017)

Tests used:
PDE10A = PDE10A (Homo sapiens (Human), UniProt Q9Y233); test: Measurement of PDE activity (HTRF cAMP kit, recombinant PDE); type: biochemical; conditions: recombinant PDE10, 20 nM cyclic nucleotide substrate, 60 minutes at 29 C
Method: The recombinant PDE proteins are used in in vitro enzymatic reaction for measurement of PDE activity. These recombinant proteins, including PDE10A (human, rat and mouse PDE10) and isoforms of PDEs 1, 3, 4, and 5, were purchased from commercial vendor BPS Bioscience. The enzymatic activity of PDEs was determined by cAMP measurement kit from CisBio (IBA) using HTRF technology.
The PDE enzymatic reaction was carried out in assay buffer (20 mM Tris-HCl pH7.5, 10 mM MgCl2, 0.1% bovine serum albumin) containing enzyme and substrate. […] The substrate cyclic nucleotide (cAMP or cGMP) concentration used in the assay was 20 nM for PDE10, and 100 nM for other PDEs. The inhibitory effect of compound was determined by incubating various concentration of inhibitor in the enzymatic assay. […] Next, the compound at varying concentration was mixed with PDE enzyme. The reaction was initiated by addition of cyclic nucleotide substrate, and incubated for 60 minutes at 29 C. The reaction was stopped by addition of lysis buffer from assay kit. The cAMP-d2 and anti-cAMP cryptate in the lysis buffer detected the level of cAMP left from the PDE hydrolysis reaction. […] Thus, IC50 value of inhibitor can be obtained by plotting inhibitor concentration against PDE activity at that concentration.

[1] = Microsomal half-life / microsomal clearance, rat liver microsomes; type: in vitro ADME; conditions: 0.5 μM test substance, 0.25 mg microsomal protein/ml, pH 7.4, 37° C.
Method: (§1) The metabolic stability of the compounds of the invention was determined in the following assay.
(§2) The test substances were incubated in a concentration of 0.5 μM as follows:
(§3) 0.5 μM test substance are preincubated together with liver microsomes from different species (from rat, human or other species) (0.25 mg of microsomal protein/ml) in 0.05 M potassium phosphate buffer of pH 7.4 in microtiter plates at 37° C. for 5 min. The reaction is started by adding NADPH (1 mg/mL). After 0, 5, 10, 15, 20 and 30 min, 50 μl aliquots are removed, and the reaction is immediately stopped and cooled with the same volume of acetonitrile. The samples are frozen until analyzed. The remaining concentration of undegraded test substance is determined by MSMS. The half-life (T1/2) is determined from the gradient of the signal of test substance/unit time plot, it being possible to calculate the half-life of the test substance, assuming first order kinetics, from the decrease in the concentration of the compound with time. The microsomal clearance (mCl) is calculated from mCl=ln 2/T1/2/(content of microsomal protein in mg/ml)×1000 [ml/min/mg] (modified from references: Di, The Society for Biomoleculur Screening, 2003, 453-462; Obach, DMD, 1999 vol 27. N 11, 1350-1359).

[2] = Microsomal half-life / microsomal clearance, human liver microsomes; type: in vitro ADME; conditions: 0.5 μM test substance, 0.25 mg microsomal protein/ml, pH 7.4, 37° C.
Method: as §1, §2, §3

Sequence of PDE10A (Q9Y233 whole entry, species assumed, canonical isoform): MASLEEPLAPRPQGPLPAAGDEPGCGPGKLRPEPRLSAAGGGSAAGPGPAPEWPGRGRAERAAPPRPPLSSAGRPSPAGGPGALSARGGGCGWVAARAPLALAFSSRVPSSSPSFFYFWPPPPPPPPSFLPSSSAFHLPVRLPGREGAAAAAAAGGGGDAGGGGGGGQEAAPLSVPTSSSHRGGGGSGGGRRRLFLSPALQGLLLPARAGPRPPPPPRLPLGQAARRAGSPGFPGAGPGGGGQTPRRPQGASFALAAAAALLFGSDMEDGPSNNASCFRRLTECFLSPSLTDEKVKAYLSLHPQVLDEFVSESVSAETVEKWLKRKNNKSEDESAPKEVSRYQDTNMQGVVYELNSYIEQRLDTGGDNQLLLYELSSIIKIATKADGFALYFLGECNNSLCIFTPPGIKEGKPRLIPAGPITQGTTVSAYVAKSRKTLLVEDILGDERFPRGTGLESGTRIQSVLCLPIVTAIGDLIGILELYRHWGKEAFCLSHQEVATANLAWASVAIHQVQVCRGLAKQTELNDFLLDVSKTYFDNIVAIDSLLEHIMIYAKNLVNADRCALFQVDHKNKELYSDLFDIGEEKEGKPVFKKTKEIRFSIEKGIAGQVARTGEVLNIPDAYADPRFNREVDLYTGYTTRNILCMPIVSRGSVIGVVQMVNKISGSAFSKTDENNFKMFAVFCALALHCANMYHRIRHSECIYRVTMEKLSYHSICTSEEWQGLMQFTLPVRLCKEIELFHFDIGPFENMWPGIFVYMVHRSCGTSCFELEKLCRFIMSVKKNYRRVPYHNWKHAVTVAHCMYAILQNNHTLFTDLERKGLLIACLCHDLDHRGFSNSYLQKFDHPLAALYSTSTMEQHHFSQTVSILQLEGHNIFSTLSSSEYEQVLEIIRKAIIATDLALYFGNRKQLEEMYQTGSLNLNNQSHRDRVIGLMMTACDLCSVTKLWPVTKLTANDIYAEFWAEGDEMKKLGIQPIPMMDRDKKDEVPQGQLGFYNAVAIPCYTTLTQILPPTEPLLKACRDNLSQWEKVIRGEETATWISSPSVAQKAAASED

| Compound | IC50 (PDE10A) [nM] | Rat mCl [1] | Human mCl [2] |
| --- | --- | --- | --- |
| Cn1cc(-c2ccncc2)c(-c2ccc(C#Cc3ccccn3)cc2)n1 [Example 2, 2-((4-(1-methyl-4-(pyridin-4-yl)-1H-pyrazol-3-yl)phenyl)ethynyl)pyridine] | < 100 | ++ (<100 μl min^−1 mg^−1) | ++ (<100 μl min^−1 mg^−1) |
| Cc1ccc(C#Cc2ccc(-c3nn(C)cc3-c3ccncc3)cc2)nc1 [Example 3, 5-methyl-2-((4-(1-methyl-4-(pyridin-4-yl)-1H-pyrazol-3-yl)phenyl)ethynyl)pyridine] | < 100 | ++ (<100 μl min^−1 mg^−1) | ++ (<100 μl min^−1 mg^−1) |
| CCCn1cc(C#Cc2ccc(-c3nn(C)cc3-c3ccncc3)cc2)cn1 [Example 4, 4-(1-methyl-3-(4-((1-propyl-1H-pyrazol-4-yl)ethynyl)phenyl)-1H-pyrazole-4-yl)pyridine] |  |  | ++ (<100 μl min^−1 mg^−1) |
| Cn1cc(-c2ccncc2)c(-c2ccc(C#Cc3ccc(F)cn3)cc2)n1 [Example 5, 5-Fluoro-2-((4-(1-methyl-4-(pyridin-4-yl)-1H-pyrazol-3-yl)phenyl)ethynyl)pyridine] | < 100 | ++ (<100 μl min^−1 mg^−1) | ++ (<100 μl min^−1 mg^−1) |
| Cc1cccnc1C#Cc1ccc(-c2nn(C)cc2-c2ccncc2)cc1 [Example 6, 3-Methyl-2-((4-(1-methyl-4-(pyridin-4-yl)-1H-pyrazol-3-yl)phenyl)ethynyl)pyridine] | < 100 | ++ (<100 μl min^−1 mg^−1) | ++ (<100 μl min^−1 mg^−1) |
| Cn1cc(-c2ccncc2)c(-c2ccc(C#Cc3nccn3C)cc2)n1 [Example 7, 4-(1-methyl-3-(4-((1-methyl-1H-imidazol-2-yl)ethynyl)phenyl)-1H-pyrazole-4-yl)pyridine] | < 100 | ++ (<100 μl min^−1 mg^−1) | ++ (<100 μl min^−1 mg^−1) |
| Cc1ccnc(C#Cc2ccc(-c3nn(C)cc3-c3ccncc3)cc2)c1 [Example 8, 4-Methyl-2-((4-(1-methyl-4-(pyridin-4-yl)-1H-pyrazol-3-yl)phenyl)ethynyl)pyridine] | < 100 | ++ (<100 μl min^−1 mg^−1) | ++ (<100 μl min^−1 mg^−1) |
| Cc1cccc(C#Cc2ccc(-c3nn(C)cc3-c3ccncc3)cc2)n1 [Example 9, 2-Methyl-6-((4-(1-methyl-4-(pyridin-4-yl)-1H-pyrazol-3-yl)phenyl)ethynyl)pyridine] | < 100 | ++ (<100 μl min^−1 mg^−1) | ++ (<100 μl min^−1 mg^−1) |
| Cn1cc(-c2ccncc2)c(-c2ccc(C#Cc3ccc4ccccc4n3)cc2)n1 [Example 12, 2-((4-(1-methyl-4-(pyridin-4-yl)-1H-pyrazol-3-yl)phenyl)ethynyl)quinoline] | < 100 | ++ (<100 μl min^−1 mg^−1) | ++ (<100 μl min^−1 mg^−1) |
| Cn1cc(-c2ccncc2)c(-c2ccc(C#Cc3ccc4ncccc4n3)cc2)n1 [Example 13, 2-[2-[4-[1-methyl-4-(4-pyridyl)pyrazol-3-yl]phenyl]ethynyl]-1,5-naphthyridine] | < 100 | ++ (<100 μl min^−1 mg^−1) | ++ (<100 μl min^−1 mg^−1) |
| Cn1cc(-c2ccncc2)c(-c2ccc(C#Cc3cn4ccccc4n3)cc2)n1 [Example 14, 2-[2-[4-[1-methyl-4-(4-pyridyl)pyrazol-3-yl]phenyl]ethynyl]imidazo[1,2-a]pyridine] | < 100 | ++ (<100 μl min^−1 mg^−1) | ++ (<100 μl min^−1 mg^−1) |
| Cn1cc(-c2ccncc2)c(-c2ccc(C#Cc3ccc4cc[nH]c4n3)cc2)n1 [Example 15, 6-[2-[4-[1-methyl-4-(4-pyridyl)pyrazol-3-yl]phenyl]ethynyl]-1H-pyrrolo[2,3-b]pyridine] | < 100 | ++ (<100 μl min^−1 mg^−1) | ++ (<100 μl min^−1 mg^−1) |
| Cc1cc(C#Cc2ccc(-c3nn(C)cc3-c3ccncc3)cc2)nc2ccccc12 [Example 16, 4-methyl-2-[2-[4-[1-methyl-4-(4-pyridyl)pyrazol-3-yl]phenyl]ethynyl]quinoline] | < 100 | ++ (<100 μl min^−1 mg^−1) | ++ (<100 μl min^−1 mg^−1) |
| Cn1cc(-c2ccncc2)c(-c2ccc(C#Cc3nccs3)cc2)n1.O=C(O)C(F)(F)F [Example 17, 2-[2-[4-[1-methyl-4-(4-pyridyl)pyrazol-3-yl]phenyl]ethynyl]thiazole; 2,2,2-trifluoroacetic acid] | 100 to 200 | ++ (<100 μl min^−1 mg^−1) | ++ (<100 μl min^−1 mg^−1) |
| Cn1cc(-c2ccncc2)c(-c2ccc(C#Cc3cnc4ccccc4n3)cc2)n1.O=C(O)C(F)(F)F [Example 18, 2-[2-[4-[1-methyl-4-(4-pyridyl)pyrazol-3-yl]phenyl]ethynyl]quinoxaline; 2,2,2-trifluoroacetic acid] | < 100 | ++ (<100 μl min^−1 mg^−1) | ++ (<100 μl min^−1 mg^−1) |
| Cc1cccc(C#Cc2c(-c3ccncc3)nc3n2CCC3)n1.O=C(O)C(F)(F)F [Example 19, 3-[2-(6-methyl-2-pyridyl)ethynyl]-2-(4-pyridyl)-6,7-dihydro-5H-pyrrolo[1,2-a]imidazole; 2,2,2-trifluoroacetic acid] |  | + (100-220 μl min^−1 mg^−1) | + (100-220 μl min^−1 mg^−1) |
| COc1cccc(C#Cc2ccc(-c3nn(C)cc3-c3ccncc3)cc2)n1.O=C(O)C(F)(F)F [Example 20, 2-methoxy-6-[2-[4-[1-methyl-4-(4-pyridyl)pyrazol-3-yl]phenyl]ethynyl]pyridine; 2,2,2-trifluoroacetic acid] | < 100 | ++ (<100 μl min^−1 mg^−1) | ++ (<100 μl min^−1 mg^−1) |
| COc1cccnc1C#Cc1ccc(-c2nn(C)cc2-c2ccncc2)cc1 [Example 21, 3-methoxy-2-[2-[4-[1-methyl-4-(4-pyridyl)pyrazol-3-yl]phenyl]ethynyl]pyridine] | < 100 | ++ (<100 μl min^−1 mg^−1) | ++ (<100 μl min^−1 mg^−1) |
| Cc1cccc(C#Cc2ccc(-c3c(-c4ccncc4)nc4n3CCC4)cc2)n1 [Example 23, 3-[4-[2-(6-methyl-2-pyridyl)ethynyl]phenyl]-2-(4-pyridyl)-6,7-dihydro-5H-pyrrolo[1,2-a]imidazole] | 100 to 200 | ++ (<100 μl min^−1 mg^−1) | ++ (<100 μl min^−1 mg^−1) |
| Cc1cccc(C#Cc2ccc(-c3nn(C)cc3-c3cn[nH]c3)cc2)n1 [Example 24, 2-methyl-6-[2-[4-[1-methyl-4-(1H-pyrazol-4-yl)pyrazol-3-yl]phenyl]ethynyl]pyridine] | 200 to 500 | ++ (<100 μl min^−1 mg^−1) | ++ (<100 μl min^−1 mg^−1) |
| Cc1cccc(C#Cc2ccc(-c3nn(C)cc3-c3cncnc3)cc2)n1 [Example 25, 5-[1-methyl-3-[4-[2-(6-methyl-2-pyridyl)ethynyl]phenyl]pyrazol-4-yl]pyrimidine] | 100 to 200 |  |  |
| Cc1cccc(C#Cc2ccc(-c3c(-c4ccncc4)cnn3C)cc2)n1 [Example 26, 2-methyl-6-[2-[4-[2-methyl-4-(4-pyridyl)pyrazol-3-yl]phenyl]ethynyl]pyridine] | < 100 | ++ (<100 μl min^−1 mg^−1) | ++ (<100 μl min^−1 mg^−1) |
| Cc1cccc(C#Cc2ccc(-c3nn(C)cc3-c3ccnn3C)cc2)n1.Cl [Example 27, 2-methyl-6-[2-[4-[1-methyl-4-(2-methylpyrazol-3-yl)pyrazol-3-yl]phenyl]ethynyl]-pyridine hydrochloride] | 100 to 200 | + (100-220 μl min^−1 mg^−1) | ++ (<100 μl min^−1 mg^−1) |
| Cc1cccc(C#Cc2ccc(-c3nn(C)cc3-c3ccnnc3)cc2)n1 [Example 28, 4-[1-methyl-3-[4-[2-(6-methyl-2-pyridyl)ethynyl]phenyl]pyrazol-4-yl]pyridazine] | < 100 |  |  |
| COc1ccc(-c2cn(C)nc2-c2ccc(C#Cc3cccc(C)n3)cc2)cc1 [Example 31, 2-[2-[4-[4-(4-methoxyphenyl)-1-methyl-pyrazol-3-yl]phenyl]ethynyl]-6-methylpyridine; 2,2,2-trifluoroacetic acid] | 100 to 200 |  |  |
